In the supplement of paper PMC10878532, “Sperm Toolbox—A selection of small molecules to study human spermatozoa” (PLOS ONE, 2024):

Columns and labels:
[1] = test system: human spermatozoa; assay: change in acrosome-reacted (PNA+) sperm vs DMSO, no agonist (capacitating); higher = more of the measured sperm population than DMSO, for viability, fewer PI-positive (dead) cells than DMSO; conditions: incubation time: 3h
[2] = test system: HeLa; assay: HeLa toxicity: nuclei-count effect normalised to DMSO (DMSO = 0); higher = more features changed / larger toxic effect; conditions: incubation time: 24h incubation
[3] = test system: human spermatozoa; assay: viability fold change, 1 - (PI-positive fraction / DMSO median); higher = more of the measured sperm population than DMSO, for viability, fewer PI-positive (dead) cells than DMSO; conditions: incubation time: 3h, non-capacitating
[4] = test system: human spermatozoa; assay: hyperactivated motile sperm, percent change vs DMSO (capacitating); higher = more of the measured sperm population than DMSO, for viability, fewer PI-positive (dead) cells than DMSO; conditions: incubation time: 30min incubation
[5] = test system: HeLa; assay: Cell Painting percent induction (share of features beyond 2 z-scores vs DMSO); higher = more features changed / larger toxic effect; extreme values may be limits of the assay; conditions: incubation time: 24h incubation
[6] = test system: human spermatozoa; assay: progressively motile sperm, percent change vs DMSO (capacitating); higher = more of the measured sperm population than DMSO, for viability, fewer PI-positive (dead) cells than DMSO; conditions: incubation time: 30min incubation
[7] = test system: HepG2; assay: HepG2 toxicity (resazurin), effect normalised to DMSO (DMSO = 0); higher = more features changed / larger toxic effect; conditions: incubation time: 70h incubation
[8] = test system: human spermatozoa; assay: progressively motile sperm, percent change vs DMSO (non-capacitating); higher = more of the measured sperm population than DMSO, for viability, fewer PI-positive (dead) cells than DMSO; extreme values may be limits of the assay
[9] = test system: human spermatozoa; assay: total motile sperm, percent change vs DMSO (non-capacitating); higher = more of the measured sperm population than DMSO, for viability, fewer PI-positive (dead) cells than DMSO
[10] = test system: human spermatozoa; assay: acrosome-reacted (PNA+) sperm after agonist cocktail, percent change vs DMSO (capacitating); higher = more of the measured sperm population than DMSO, for viability, fewer PI-positive (dead) cells than DMSO; conditions: incubation time: 3h, capacitating + agonist cocktail 1h
[11] = incubation time: 10min incubation, 9.99 µM
[12] = incubation time: 10min incubation, 29.9 µM
[13] = incubation time: 3h incubation, 9.99 µM
[14] = incubation time: 3h incubation, 29.9 µM
[15] = incubation time: 6h incubation, 9.99 µM
[16] = incubation time: 6h incubation, 29.9 µM
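For progressively motile sperm, percent change vs DMSO (non-capacitating) in this document: pooled live human sperm from at least 3 donors, tracked by automated microscopy in 0.5 s time-lapse movies, compounds at 10 and 30 µM, versus median of 16 DMSO wells per plate.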
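For total motile sperm, percent change vs DMSO (non-capacitating) in this document: sperm pooled from at least 3 donors, tracked in 0.5 s time-lapse movies by automated microscopy after 10 min, 3 h or 6 h with compound at 10 or 30 µM.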

SMILES | change in acrosome-reacted ([1]; 9.99 µM) | change in acrosome-reacted ([1]; 29.9 µM) | HeLa toxicity: nuclei-count effect normalised ([2]; 9.99 µM) | HeLa toxicity: nuclei-count effect normalised ([2]; 29.9 µM) | viability fold change ([3]; 9.99 µM) | viability fold change ([3]; 29.9 µM) | hyperactivated motile sperm ([4]; 9.99 µM) | hyperactivated motile sperm ([4]; 29.9 µM) | Cell Painting percent induction ([5]; 9.99 µM) | Cell Painting percent induction ([5]; 29.9 µM) | progressively motile sperm ([6]; 9.99 µM) | progressively motile sperm ([6]; 29.9 µM) | HepG2 toxicity ([7]; 10 µM) | HepG2 toxicity ([7]; 30 µM) | progressively motile sperm [8, 11] | progressively motile sperm [8, 12] | progressively motile sperm [8, 13] | progressively motile sperm [8, 14] | progressively motile sperm [8, 15] | progressively motile sperm [8, 16] | total motile sperm [9, 11] | total motile sperm [9, 12] | total motile sperm [9, 13] | total motile sperm [9, 14] | total motile sperm [9, 15] | total motile sperm [9, 16] | acrosome-reacted ([10]; 9.99 µM) | acrosome-reacted ([10]; 29.9 µM)
Oc1c(Cl)cc(Cl)c(Cl)c1Cc1c(O)c(Cl)cc(Cl)c1Cl [Hexachlorophene] | 0.634% | 0.899% | 14% | 33.9% | -0.213 | 0.344 | -24.4% | -58.1% | 0% | 0.18% | -5.64% | -8.81% | 56.3% | 74.5% | -23.5% | -48.4% | -39.7% | -63.9% | -37.2% | -61.3% | -1.87% | -5.83% | -1.02% | -8.13% | -1.96% | -7.29% | -9.07% | -13.3%
CC(C)Cn1c(=O)n(C)c(=O)c2[nH]cnc21 [IBMX] | 0.651% | 1.04% | 3.07% | -2.27% | -0.424 | -0.627 | 67.7% | 147% | 0% | 0.036% | 12.9% | 19.2% | 7.96% | -0.365% | 18.9% | 35.7% | 40.5% | 53.9% | 53.1% | 61.2% | -1.18% | 1.45% | -5.33% | -3.42% | -1.15% | -4.45% | 36.8% | 69.3%
CC(C)Cn1cnc2c(N)nc3ccccc3c21 [Imiquimod] | 1.03% | 1.32% | 6.28% | 5.01% | -0.324 | -0.489 | 65.2% | 131% | 0.612% | 0% | 7.22% | 11.8% | 10.2% | -1.53% | 24.4% | 32.7% | 49.3% | 51.2% | 58.8% | 51.3% | -0.548% | 1.37% | -4.33% | -4.6% | -4.54% | -9.83% | 34.9% | 56.5%
Cc1sc2c(c1C)C(c1ccc(Cl)cc1)=N[C@@H](CC(=O)OC(C)(C)C)c1nnc(C)n1-2 [JQ1] | 0.641% | 1.24% | 16.3% | 31.3% | -0.127 | -0.0779 | 18.5% | -14.4% | 0.684% | 1.87% | 15.8% | 27.5% | 56.3% |  | 13.6% | 21.5% | 27.4% | 52.8% | 48% | 55.5% | 4.25% | 1.65% | -3.02% | 0.304% | -0.955% | -3.78% | 17.2% | 40.2%
COc1cc(SC)ccc1C(=O)N1CCC(Cc2ccccc2)CC1 [JX 401] | 0.294% | 1.59% | 4.01% | 2.67% | -1.82 | -1.65 | 19.2% | 24.9% | 0.036% | 0% | 4.17% | 3.66% | 9.25% | -2.23% | 2.94% | -4.03% | 10.9% | 7.53% | 13.8% | 14.6% | 3.2% | -0.475% | 1.22% | -0.09% | 0.862% | -0.188% | 15% | 16.2%
